In the supplement of paper PMC11997997:

Columns and labels:
[1] = test system: Mycobacterium tuberculosis CDC1551 (intracellular, in murine BMDM); assay: area under intracellular growth-inhibition dose-response curve (AUC (% inhibition x dose, relative)); higher = more potent; conditions: duration: 6 days; dose range: 0.13-80 uM, 8 points
Outline: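 Each value is an area under the growth-inhibition dose–response curve, calculated with GraphPad Prism. Infected primary murine bone marrow-derived macrophages, carrying luciferase-expressing M. tuberculosis CDC1551 at multiplicity of infection 1, were treated for 6 days with an 8-dose, 2.5-fold series (final 80–0.13 μM) in 384-well opaque plates. Readout was by Bright-Glo luciferin assay, normalised to a reference drug control and the lowest-concentration wells.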

[2] = test system: murine bone marrow-derived macrophages; assay: area under cytotoxicity dose-response curve (AUC (% cytotoxicity x dose, relative)); higher = more cytotoxic; conditions: duration: 6 days; dose range: 0.13-80 uM, 8 points
Outline: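 An 8-point, 2.5-fold dilution series (final 80–0.13 μM) was applied for 6 days at 37 °C in 5% CO2 to primary murine bone marrow-derived macrophages plated in opaque 384-well plates. Promega's CellTiter-Glo luminescence assay measured viability, and percent cytotoxicity was normalised against vehicle and positive control wells. The area under the dose–response curve, worked out in GraphPad Prism version 10, is the reported cytotoxicity measure.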

| Structure (SMILES) | area under intracellular growth-inhibition dose-response curve [1] | area under cytotoxicity dose-response curve [2] |
| --- | --- | --- |
| Cc1c(Cc2ccccc2)c(NCCCO)n2c(nc3ccccc32)c1C#N | 148 | < 0 |
| O=C(NC1CCCCCCC1)c1ccc(Br)cc1 | 268 | < 0 |
| COc1cccc(CNC(=O)CN2C(=O)NC(Cc3ccccc3)(c3ccccc3)C2=O)c1 (centres undefined) | 89.4 | 1.94 |
| O=C(CSc1nc2ccccc2s1)NCc1cc([N+](=O)[O-])ccc1O | 39.4 | 48 |
| O=C(NCCc1ccncc1)Nc1cccc(Cl)c1 | 11.9 | 79.9 |
| On1c(-c2ccccc2)nc2ccccc21 | 28.6 | < 0 |
| O=C(CSc1nc(-c2ccccc2)ns1)N1CCOCC1 | 163 | 56.3 |
| Cc1ccc(C(=O)c2oc3ccc(Cl)cc3c2NC(=O)CN2CCN(C)CC2)cc1 | 131 | 69.1 |
| N=c1c2c(-c3ccccc3)c(-c3ccccc3)n(Cc3ccccc3)c2ncn1CCCn1ccnc1 | 48.2 | 49.3 |
| COc1ccc(CCNC(=O)c2ccc(Cl)cc2)cc1 | 241 | < 0 |
| CN(C)c1ccc(Nc2ncnc3ccc(Br)cc23)cc1 | 121 | 33.3 |
| C/C(=N\NC(=O)c1ccncc1)c1ccc(N(C)C)cc1 | 182 | 58.7 |
| Cc1ccc(C(=O)N2CCN(c3ccc(NC(=S)NC(=O)Cc4ccccc4)cc3)CC2)cc1 | 212 | 53.7 |
| Cc1ccc2nc(C)c3c(c2c1)SCC3 | 79.5 | 24.5 |
| O=C(/C=C/c1cccs1)NC1CCCC1 | 114 | 39.1 |
| Cc1[nH]c2ccccc2c1C(=O)C(C)OC(=O)c1ccc([N+](=O)[O-])o1 (centres undefined) | 3.96 | < 0 |
| O=C(NCc1cccc(Cl)c1)c1cccc(S(=O)(=O)N2CCCCC2)c1 | 60.1 | < 0 |
| O=C(c1ccc([N+](=O)[O-])o1)N1CCN(c2nc3ccc(F)cc3s2)CC1 | 22.9 | 12.7 |
| CC(C)(C)c1ccc(OCCNC(=O)c2nc[nH]n2)cc1 | 233 | < 0 |
| CCOc1ccc(/C=N/NC(N)=S)cc1 | 270 | 28.9 |
| O=P1(c2ccccc2)Nc2ccccc2N1c1ccccc1 (centres undefined) | 264 | 8.15 |

| Structure (SMILES) | area under intracellular growth-inhibition dose-response curve [1] | area under cytotoxicity dose-response curve [2] |
| --- | --- | --- |
| CC(=O)c1c(C)[n+]([O-])c2cc(C)ccc2[n+]1[O-] | 95.3 | 31.7 |
| CCCCCCn1c(=O)c(C(=O)Nc2ncccc2C)c(O)c2ccccc21 | 237 | 47.2 |
| Cc1occc1C(=O)N/N=C/C=C/c1ccccc1 | 87.6 | 60 |
| CNc1cc(Cl)c2nonc2c1[N+](=O)[O-] | 3.12 | 10.1 |
| COc1ccc(/C=N/NC(=O)c2ccncc2)cc1CN1CCCc2ccccc21 | 201 | 19.4 |
| COc1cc(-c2cc(C(=O)Nc3ccncc3)c3ccccc3n2)cc(OC)c1OC | 32.8 | 0.318 |
| O=C(NCc1ccccc1)c1cc2ccccc2o1 | 197 | 71.7 |
| COc1cc(/C=N/NC(=O)c2ccncc2)ccc1Oc1ccc([N+](=O)[O-])cn1 | 194 | 71.3 |
| CC1CCCN(c2ccc([N+](=O)[O-])s2)C1 (centres undefined) | 241 | < 0 |
| CCN1CCN(c2cc3c(cc2F)c(=O)c(C(=O)O)cn3C2CC2)CC1 | 258 | 7.13 |
| CCc1ccc(/C(C)=N/NC(=O)c2ccc(-n3cnnn3)cc2)cc1 | < 0 | 24.6 |
| CC[C@@H](C)[C@H](CNC)NC[C@@H](Cc1cccc2ccccc12)NCCc1cccc(C(F)(F)F)c1 | 144 | 117 |
| CCCC(=O)N1CCN(c2ccc(NC(=O)c3ccc([N+](=O)[O-])o3)cc2)CC1 | 107 | 129 |
| CSc1sccc1/C=N/NC(=O)c1ccncc1 | 249 | 15.4 |
| N=C(NCCCCCCNC(=N)NC(=N)Nc1ccc(Cl)cc1)NC(=N)Nc1ccc(Cl)cc1 | 89.5 | 165 |
| COc1ccc(OCCCC(=O)NNC(=O)c2ccncc2)cc1 | 227 | 6.62 |
| CCC(C)c1ccc(NC(=S)Nc2ccc(OC)cc2)cc1 (centres undefined) | 201 | 46.7 |
| OC(CCCC(O)c1ccccc1)c1ccccc1 (centres undefined) | 203 | 31.6 |
| Cc1ccc(C)c(-c2nnc(NC(=O)c3ccc([N+](=O)[O-])o3)o2)c1 | 62 | 128 |
| CC(=O)Nc1ccccc1NC(=O)C/C(C)=N/NC(=O)c1ccncc1 | 168 | 38.1 |
| O=C(NCCC1=CCCCC1)c1ccc(F)cc1 | 122 | 3.13 |

| Structure (SMILES) | area under intracellular growth-inhibition dose-response curve [1] | area under cytotoxicity dose-response curve [2] |
| --- | --- | --- |
| CC(C)(C)c1csc(N/N=C/c2ccc(O)cc2)n1 | 235 | 19.1 |
| O=C(NCc1cccc(C(F)(F)F)c1)c1ccc[nH]1 | 91 | 2.14 |
| O=S1(=O)C=C(Sc2nc3ccccc3s2)c2ccccc21 | < 0 | 179 |
| CC[C@@H](C)[C@@H]1CN([C@@H](CN2CCC[C@H]2CN2C(N)=NC[C@H]2C(C)C)C(C)C)C(=N)N1CCCC1CCCC1 | 191 | 32.4 |
| CCCC(=O)NC(=S)Nc1ccc(N2CCN(C(=O)c3cccs3)CC2)cc1 | 274 | < 0 |
| O=c1cc(-c2c(F)c(F)c(F)c(F)c2F)oc2ccccc12 | 122 | 11.4 |
| COc1cc(OC)c([N+](=O)[O-])cc1/C=N/NC(=O)c1ccncc1 | 242 | 19 |
| O=C(NCC1CCCO1)c1csc2c1CCCCC2 (centres undefined) | 143 | 19.4 |
| COc1cc(OC)c(/C=N/NC(=O)c2ccncc2)c(OC)c1 | 272 | 60.6 |
| CC[n+]1c(/C=C/N(C)c2ccccc2)n(-c2ccccc2)c2ccc(-c3nc4ccccc4s3)cc21.[I-] | 162 | 146 |
| O=C(Nc1ccc(NC(=S)NC(=O)c2ccco2)cc1)c1ccccc1 | 192 | 40 |
| O=[N+]([O-])c1ccc(CN2CCN(c3ccc(Cl)cc3)CC2)o1 | 222 | 33.9 |
| CCCN(Cc1nnc(-c2ccccc2Cl)o1)C(=O)c1cc([N+](=O)[O-])cc([N+](=O)[O-])c1 | 84 | 38.7 |
| O=C(COc1ccccc1)NC(=S)Nc1ccc2c(c1)Cc1ccccc1-2 | 190 | 74 |
| O=C(N/N=C/c1ccc(Sc2nc3ccccc3[nH]2)o1)c1ccncc1 | 269 | 34.4 |
| CNc1nc(SCc2ccc(C)cc2)nc2c1CCCC2 | 274 | 19.6 |
| CN(C)S(=O)(=O)c1ccc(C(=O)OCC(=O)NC(=O)NC2CCCC2)cc1 | 165 | < 0 |
| CC1CCC(C(C)C)C(OC(=O)Cn2c(-c3ccc(Br)cc3)[n+](C)c3ccccc32)C1.[Cl-] (centres undefined) | 128 | 147 |
| Cc1ccc(OCCCC(=O)Nc2ccc(S(=O)(=O)N3CCOCC3)cc2)cc1 | 53.8 | 3.26 |
| COc1ccc(C(=O)C(C)OC(=O)CNC(=O)c2ccco2)cc1 (centres undefined) | 166 | < 0 |
